Literature values as cited in US20210284969A1, “METHODS AND SYSTEMS FOR TRANSPORTATION AND CULTURE OF BUOYANT TISSUE” (eXo Cell, LLC, priority 2020, published 2021).

What was measured:
[1] = tested on: obese, diabetic yellow KK mice
brown adipose tissue = conditions: in humans

SMILES: C[C@H](Cc1ccc2c(c1)OC(C(=O)[O-])(C(=O)[O-])O2)NC[C@H](O)c1cccc(Cl)c1.[Na+].[Na+] [CL-316243]
- effect on obesity [1]: ameliorated obesity

SMILES: O=S(=O)(Nc1ccc(CCNC[C@H](O)c2cccnc2)cc1)c1ccc(-c2nc(-c3ccc(C(F)(F)F)cc3)cs2)cc1 [L-796568]
- anti-obesity effects (obese human males): did not generate notable anti-obesity effects
- energy expenditure (obese human males): improved energy expenditure

SMILES: Nc1nc(CC(=O)Nc2ccc(CCNC[C@H](O)c3ccccc3)cc2)cs1 [migrabegron]
- brown adipose tissue activation (brown adipose tissue): activate brown adipose tissue
